Assay results: BindingDB's records for doi:10.1021/jm00039a008 (Albany Molecular Research, 1994)
Where a name gives a salt, the structure may show the parent alone.

Experiment: Affinity at sigma-1 site by inhibition of [3H](+)-pentazocine (PENT) binding in guinea pig brain

Point of comparison: `O=C(OCCCCCCN1CCC(c2ccccc2)CC1)C1(c2ccccc2)CCCC1` [1-Phenyl-cyclopentanecarboxylic acid 6-(4-phenyl-piperidin-1-yl)-hexyl ester; hydrochloride], Ki 1.2 nM. Against it:
- O=C(OCCCN1CCC(c2ccccc2)CC1)C1(c2ccc(I)cc2)CCCC1 [1-(4-Iodo-phenyl)-cyclopentanecarboxylic acid 3-(4-phenyl-piperidin-1-yl)-propyl ester; hydrochloride] — within 1.5-fold, 0.88 nM
- O=C(OCCN1CCN(c2ccccc2)CC1)C1(c2ccc(I)cc2)CCCC1 [1-(4-Iodo-phenyl)-cyclopentanecarboxylic acid 2-(4-phenyl-piperazin-1-yl)-ethyl ester; hydrochloride] — 19-fold higher, 23 nM
- O=C(OCCN1CCC(c2ccccc2)CC1)C1(c2ccc(Cl)cc2)CCCC1 [1-(4-Chloro-phenyl)-cyclopentanecarboxylic acid 2-(4-phenyl-piperidin-1-yl)-ethyl ester; hydrochloride] — within 1.5-fold, 1.3 nM
- COc1ccc(C2(C(=O)OCCCN3CCC(c4ccccc4)CC3)CCCC2)cc1 [1-(4-Methoxy-phenyl)-cyclopentanecarboxylic acid 3-(4-phenyl-piperidin-1-yl)-propyl ester; hydrochloride] — 1.8-fold lower, 0.65 nM
- O=C(OCCCCN1CCC(c2ccccc2)CC1)C1(c2ccccc2)CCCC1 [1-Phenyl-cyclopentanecarboxylic acid 4-(4-phenyl-piperidin-1-yl)-butyl ester; hydrochloride] — 2.4-fold lower, 0.51 nM
- N#Cc1ccc(C2(C(=O)OCCN3CCC(c4ccccc4)CC3)CCCC2)cc1 [1-(4-Cyano-phenyl)-cyclopentanecarboxylic acid 2-(4-phenyl-piperidin-1-yl)-ethyl ester; hydrochloride] — within 1.5-fold, 1.3 nM
- O=C(OCCCN1CCC(c2ccccc2)CC1)C1(c2ccc(Cl)cc2)CCCC1 [1-(4-Chloro-phenyl)-cyclopentanecarboxylic acid 3-(4-phenyl-piperidin-1-yl)-propyl ester; hydrochloride] — within 1.5-fold, 1.5 nM
- O=C(OCCCN1CCC(c2ccccc2)CC1)C1(c2ccc([N+](=O)[O-])cc2)CCCC1 [1-(4-Nitro-phenyl)-cyclopentanecarboxylic acid 3-(4-phenyl-piperidin-1-yl)-propyl ester; hydrochloride] — 4.4-fold lower, 0.27 nM
- O=C(OCCN1CCN(c2ccccc2)CC1)C1(c2ccccc2)CCCC1 [1-Phenyl-cyclopentanecarboxylic acid 2-(4-phenyl-piperazin-1-yl)-ethyl ester; hydrochloride] — 52-fold higher, 63 nM
- O=C(OCCN1CCN(c2ccccc2)CC1)C1(c2ccc([N+](=O)[O-])cc2)CCCC1 [1-(4-Nitro-phenyl)-cyclopentanecarboxylic acid 2-(4-phenyl-piperazin-1-yl)-ethyl ester; hydrochloride] — 2.3-fold higher, 2.8 nM
- COc1ccc(C2(C(=O)OCCN3CCC(c4ccccc4)CC3)CCCC2)cc1 [1-(4-Methoxy-phenyl)-cyclopentanecarboxylic acid 2-(4-phenyl-piperidin-1-yl)-ethyl ester; hydrochloride] — within 1.5-fold, 1 nM
- O=C(OCCN1CCC(c2ccccc2)CC1)C1(c2ccccc2)CCCC1 [1-Phenyl-cyclopentanecarboxylic acid 2-(4-phenyl-piperidin-1-yl)-ethyl ester; hydrochloride] — 3.3-fold higher, 4 nM
- O=C(OCCN1CCN(c2ccccc2)CC1)C1(c2ccc(Cl)cc2)CCCC1 [1-(4-Chloro-phenyl)-cyclopentanecarboxylic acid 2-(4-phenyl-piperazin-1-yl)-ethyl ester; hydrochloride] — 64-fold higher, 77 nM
- O=C(OCCN1CCC(c2ccccc2)CC1)C1(c2ccc(I)cc2)CCCC1 [1-(4-Iodo-phenyl)-cyclopentanecarboxylic acid 2-(4-phenyl-piperidin-1-yl)-ethyl ester; hydrochloride] — within 1.5-fold, 1.4 nM

Experiment: Binding affinity was measured as selectivity for sigma-1 site over muscarinic (M1) receptor in rat

For `COc1ccc2c(c1)[C@]13CCCC[C@@H]1[C@H](C2)N(C)CC3` [DEXTROMETHORPHAN], the Ki was 5070 nM.
